Laboratory results published in patent US9150865B2 (priority 2010, dated 2015).
Entries after “also recorded” stand apart in the source; their conditions may differ.

Assays:
ADAM10 [1] = conditions: cited from earlier work
ADAM10 [2] = target: T1, ADAM10 (Homo sapiens, UniProt O14672); assay type: cell-based
[3] = tested on: Human pulmonary artery endothelial cells (HPAECs); assay type: cell-based
ADAM10 [4] = target: T1, ADAM10; assay type: cell-based; remark: listed apart in the source
ADAM10 [5] = target: T1, ADAM10; assay type: cell-based; remark: listed apart in the source
BALB/c mice = conditions: mouse, in vivo
rabbit red cells = assay type: cell-based
ADAM10 [6] = target: T1, ADAM10; assay type: cell-based; remark: listed apart in the source
S. aureus Newman = tested on: S. aureus Newman; design: species or system Staphylococcus aureus; conditions: in vivo
S. aureus USA300/LAC = tested on: S. aureus USA300/LAC; design: species or system Staphylococcus aureus; conditions: in vivo
S. aureus strain Newman = tested on: S. aureus strain Newman; design: species or system Staphylococcus aureus; conditions: in vivo, ip
ADAM10 [7] = target: T1, ADAM10; assay type: cell-based; remark: listed apart in the source
A549 cells = assay type: cell-based, human
ADAM10 [8] = target: T1, ADAM10; assay type: cell-based; remark: listed apart in the source
A431 keratinocytes = assay type: cell-based
C57BL/6J mice = conditions: mouse, in vivo

T1 sequence (O14672 214-748 limits assumed): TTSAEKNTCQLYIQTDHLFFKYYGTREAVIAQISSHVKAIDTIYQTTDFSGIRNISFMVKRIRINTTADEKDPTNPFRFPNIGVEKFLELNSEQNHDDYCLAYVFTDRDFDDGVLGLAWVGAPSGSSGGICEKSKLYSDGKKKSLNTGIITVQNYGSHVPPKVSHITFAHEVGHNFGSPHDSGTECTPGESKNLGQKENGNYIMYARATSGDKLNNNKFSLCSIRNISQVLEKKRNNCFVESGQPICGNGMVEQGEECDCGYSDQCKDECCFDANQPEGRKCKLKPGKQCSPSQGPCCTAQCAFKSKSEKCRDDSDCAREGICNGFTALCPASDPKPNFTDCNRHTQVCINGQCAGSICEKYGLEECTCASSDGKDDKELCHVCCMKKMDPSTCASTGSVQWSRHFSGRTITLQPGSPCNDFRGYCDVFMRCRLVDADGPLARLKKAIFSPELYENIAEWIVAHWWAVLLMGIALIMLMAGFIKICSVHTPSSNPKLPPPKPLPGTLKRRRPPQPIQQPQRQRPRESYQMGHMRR

## C[C@H](CCC(=O)O)C[C@H](C)C[C@H](C)C(=O)/C=C(\O)[C@H](C)C[C@H](C)C/C=C/[C@@H](C)[C@@H](O)[C@@H](C)[C@@H](O)C[C@@H]1CC[C@@](C)([C@H]2CC[C@@](C)([C@@H](C)O)O2)O1 [Ionomycin]
ADAM10 [1]
  induction of ADAM10 metalloprotease activity: potently induces the metalloprotease activity of ADAM10
ADAM10 [2]
  E-cadherin cleavage induced by agent alone: stimulating E-cadherin cleavage; also recorded: E-cadherin CTFs were generated; also recorded: enhancing cleavage

## N—(R)-[2-hydroxyaminocarbonyl)methyl]-4-methylpentanoyl-L-napthylalanyl-L-alanine, 2-aminoethyl amide [TAPI-1]
[3]
  barrier function after Hla (ECIS): maintenance of barrier function; also recorded: did not result in loss of barrier function
ADAM10 [4]
  Hla-induced VE-cadherin cleavage: prevented VE-cadherin cleavage
ADAM10 [2]
  Hla-induced E-cadherin cleavage (Western blot): impaired Hla-induced E-cadherin cleavage
  surface expression of E-cadherin after Hla (immunofluorescence): preserved surface expression of E-cadherin

## Methyl-β-cyclodextrin
ADAM10 [5]
  Hla-induced metalloprotease activation: abrogated metalloprotease activation
ADAM10 [2]
  Hla-induced E-cadherin cleavage: abrogated metalloprotease activation and E-cadherin cleavage

## CNC(=O)[C@@H](NC(=O)[C@H](CCCc1ccccc1)[C@H](C)N(O)C=O)C(C)(C)C [GI254023X]
BALB/c mice
  vascular integrity / Evans blue dye extravasation: enhanced vascular integrity, manifest by limited dye extravasation
Rabbit red cells
  Hla-induced hemolysis: blunted hemolysis
[3]
  Hla-mediated barrier disruption (ECIS): complete protection of HPAECs from Hla-mediated barrier disruption
ADAM10 [6]
  Hla-induced loss of E-cadherin expression and disruption of cell junctions: could be prevented; also recorded: is inhibited
S. aureus Newman
  survival of lethal challenge: all experimental animals succumbed to the lethal challenge
S. aureus Newman; 200 mg/kg
  appearance of illness: less ill in appearance
S. aureus Newman; iv, 200 mg/kg
  time-to-death: prolongation of time-to-death
S. aureus USA300/LAC
  abscess size: reduction in abscess size
  dermonecrotic skin lesions: did not demonstrate dermonecrotic skin lesions
  skin breakdown (dermonecrosis) over the site of infection: completely prevented skin breakdown over the site of infection
S. aureus strain Newman
  protection against lethal S. aureus pneumonia (mortality curves): protected from rapidly lethal S. aureus pneumonia, displaying an increase in time to death and survival among some animals; also recorded: protected against lethal pneumonia
ADAM10 [7]
  PLY-induced E-cadherin cleavage: prevented PLY-induced E-cadherin cleavage
A549 cells
  toxin binding and oligomerization on the surface of A549 cells: markedly impaired toxin binding and subsequent oligomerization; also recorded: impaired toxin binding and oligomerization on A549 cells
ADAM10 [8]
  full-length E-cadherin expression upon toxin treatment: preservation of full-length E-cadherin expression
A431 keratinocytes
  epithelial barrier function upon toxin treatment (ECIS): preservation of full-length E-cadherin expression and epithelial barrier function
ADAM10 [4]
  Hla-induced VE-cadherin cleavage: prevented VE-cadherin cleavage
ADAM10 [2]
  Hla-induced E-cadherin cleavage: nearly abrogated Hla-induced E-cadherin cleavage
C57BL/6J mice
  accumulation of cells and proteinaceous edema in the alveolar space (BAL cell count, protein): reduced the accumulation of both cells and proteinaceous edema in the alveolar space; also recorded: reduced alveolar exudates; also recorded: prevents Hla-induced lung epithelial barrier disruption in vivo
C57BL/6J mice; ip
  E-cadherin cleavage in response to Hla treatment in mice: prevented E-cadherin cleavage in response to Hla treatment
